From patent US8686143B2, “Compounds useful as inhibitors of Janus kinases” (Vertex Pharmaceuticals Incorporated, priority 2007, dated 2014)

Target: T1, JAK3 (Homo sapiens, UniProt P52333)
T1 sequence (P52333 1-1124): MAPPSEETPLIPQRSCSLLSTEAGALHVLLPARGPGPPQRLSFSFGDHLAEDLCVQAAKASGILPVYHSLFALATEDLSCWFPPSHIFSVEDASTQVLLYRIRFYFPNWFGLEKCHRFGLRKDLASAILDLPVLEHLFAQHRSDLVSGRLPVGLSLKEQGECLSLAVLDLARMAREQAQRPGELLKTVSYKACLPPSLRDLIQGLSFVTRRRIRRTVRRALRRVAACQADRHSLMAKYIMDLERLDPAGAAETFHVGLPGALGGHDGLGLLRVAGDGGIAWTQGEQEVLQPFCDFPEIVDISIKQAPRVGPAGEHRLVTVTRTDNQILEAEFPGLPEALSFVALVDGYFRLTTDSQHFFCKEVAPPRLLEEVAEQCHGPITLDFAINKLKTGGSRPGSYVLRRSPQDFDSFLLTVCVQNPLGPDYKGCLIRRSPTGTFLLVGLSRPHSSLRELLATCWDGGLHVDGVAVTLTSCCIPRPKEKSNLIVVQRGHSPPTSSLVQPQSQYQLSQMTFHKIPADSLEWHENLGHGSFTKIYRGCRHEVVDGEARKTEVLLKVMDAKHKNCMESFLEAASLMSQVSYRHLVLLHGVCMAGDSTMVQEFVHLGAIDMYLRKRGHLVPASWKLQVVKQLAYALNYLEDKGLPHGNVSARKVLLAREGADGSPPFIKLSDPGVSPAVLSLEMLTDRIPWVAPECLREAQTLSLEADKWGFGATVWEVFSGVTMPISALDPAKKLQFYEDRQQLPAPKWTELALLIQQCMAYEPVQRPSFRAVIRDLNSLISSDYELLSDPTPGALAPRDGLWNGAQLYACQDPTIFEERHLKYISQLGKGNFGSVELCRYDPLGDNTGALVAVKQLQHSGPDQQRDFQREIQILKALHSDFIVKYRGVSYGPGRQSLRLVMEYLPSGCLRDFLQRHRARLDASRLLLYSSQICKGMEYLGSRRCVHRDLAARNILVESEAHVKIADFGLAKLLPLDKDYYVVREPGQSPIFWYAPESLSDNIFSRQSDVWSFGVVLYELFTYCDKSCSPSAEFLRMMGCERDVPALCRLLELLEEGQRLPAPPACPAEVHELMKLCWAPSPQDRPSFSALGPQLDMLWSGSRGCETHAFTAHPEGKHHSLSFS
Test: JAK3 Inhibition Assay (33P incorporation into poly(Glu)4Tyr)
Type: biochemical
Details: for Ki: 1 nM JAK3, 5 μM ATP, 1 μM poly(Glu)4Tyr, 25° C.
Summary of the method: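 Run at 25°C for 20 min with 1 nM enzyme in pH 7.4 HEPES buffer with MgCl2, DTT, NaCl and BSA. Final substrates were 5 μM ATP (33P-labelled) and 1 μM poly(Glu)4Tyr. Stopped with TCA, filtered, and 33P incorporation counted by scintillation.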

Row | Compound | inhibition of JAK3 at concentrations of 50 μM (at concentrations of 50 μM) | Ki [µM]
1 | CC(C)[C@@H](Nc1nc(-c2ccc3c(c2)OCCO3)ncc1F)C(=O)NCC(F)(F)F [Compound 166] | did not inhibit | –
2 | CC(C)[C@@H](Nc1ccnc(-c2ccc(O)cc2)n1)C(=O)NCC(F)(F)F [Compound 167] | – | 1 to 10
3 | CC(C)[C@@H](Nc1nc(-c2ccc3nccnc3c2)ncc1F)C(=O)NCC(F)(F)F [Compound 168] | – | 1 to 10
